Assay results from US20110112133A1, “DIHYDRO PYRROLOQUINOLINE DERIVATIVES” (Takeda Pharmaceutical Company Limited, priority 2009, published 2011).

Target: T1, hNK3 receptor (Homo sapiens, UniProt P29371)
T1 construct: expressed in transfected cells; host or cells: CHO cells
T1 sequence (P29371 1-465): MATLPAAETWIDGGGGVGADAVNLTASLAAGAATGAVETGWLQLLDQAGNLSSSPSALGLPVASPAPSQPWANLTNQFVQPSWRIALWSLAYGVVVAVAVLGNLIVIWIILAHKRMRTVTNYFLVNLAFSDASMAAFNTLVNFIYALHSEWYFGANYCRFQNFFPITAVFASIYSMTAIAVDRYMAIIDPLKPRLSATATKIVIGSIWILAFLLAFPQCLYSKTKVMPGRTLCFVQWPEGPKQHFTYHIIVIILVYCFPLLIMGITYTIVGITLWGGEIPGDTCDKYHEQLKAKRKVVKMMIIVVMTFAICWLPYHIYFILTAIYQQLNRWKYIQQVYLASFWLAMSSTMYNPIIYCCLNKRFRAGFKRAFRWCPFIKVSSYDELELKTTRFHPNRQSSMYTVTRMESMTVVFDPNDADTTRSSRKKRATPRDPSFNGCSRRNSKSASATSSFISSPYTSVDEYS
Test: Radioligand receptor binding inhibitory activity using membrane fraction of hNK3 receptor-expressing CHO cell ([125I]-NKB)
Conditions: for inhibition at 10 µM / inhibition at 1 µM: read-out: hNK3 receptor binding inhibitory activity (inhibitory rate (%))
Description: Radioligand Receptor Binding Inhibitory Activity Using Membrane Fraction of hNK3 Receptor-Expressing CHO Cell
hNK3 receptor-expressing CHO cells were cultured in a HAM-F12 medium containing 500 μg/mL Geneticin, 100 U/mL penicillin, 100 μg/mL streptomycin and 10% inactivated serum. The medium was removed before reaching confluence, and the cells were washed with PBS. PBS containing 0.5 mM EDTA was added to detach the cells from the flask and a cell suspension was recovered. The cells were recovered by low speed centrifugation. The cells were suspended in suspending buffer A (50 mM Tris-HCl (pH 7.4), 120 mM NaCl, 5 mM KCl, bacitracin (40 μg/mL), chymostatin (2 μg/mL), PMSF (0.5 mM), 1 mM EDTA), disrupted by a POLYTRON homogenizer (manufactured by KINEMATICA) and centrifuged at 2000×g for 10 min at 4° C. The supernatant was recovered, and ultracentrifuged at 40000×g for 60 min at 4° C. The precipitated fraction was suspended in suspending buffer B (50 mM Tris-HCl (pH 7.4), 3 mM MnCl2, 0.02% BSA, bacitracin (40 μg/mL), chymostatin (2 μg/mL), PMSF (0.5 mM)). The protein concentration of the suspension was measured using Bio-Rad Protein Assay kit and bovine serum albumin (protein preparation), and cryopreserved (at −80° C.) as a membrane fraction preparation of hNK3 receptor-expressing CHO cell until use for a binding assay.
The radioligand receptor binding assay was performed in a 96 well microassay plate format with a final volume of 200 μL. To the 96 well microassay plate were added 50 μL of assay buffer (50 mM Tris-HCl (pH 7.4), 0.02% bovine serum albumin, 2 μg/mL chymostatin, 40 μg/mL bacitracin, 40 μg/mL APMSF, 3 mM MnCl2), the aforementioned cryopreserved membrane fraction preparation suspended in assay buffer (50 μL (300 μg/mL)) and a test compound diluted with 50 μL of assay buffer (containing 2% dimethyl sulfoxide). The reaction was started by the addition of 50 μL of 400 pM [^125I]-NKB NKB (PerkinElmer Life Sciences) solution. For the measurement of the total binding, assay buffer (50 μL) containing 2% dimethyl sulfoxide was added instead of a diluted test compound solution, and for the measurement of non-specific binding, 50 μL of 4 μM unlabeled NKB (manufactured by Peptide Institute, Inc.) solution (diluted with assay buffer containing 2% dimethyl sulfoxide) was added.
After reaction at room temperature for 30 min, using a cell harvester (manufactured by PerkinElmer), the reaction was stopped by rapid filtration on a unifilter plate (GF/C) (manufactured by PerkinElmer), which had been immersed in 0.3% polyethyleneimine for one day, and the membrane fraction was washed 10 times with 50 mM Tris-HCl (pH 7.4) buffer containing 0.02% bovine serum albumin (250 μL). The GF/C filter plate was dried and 20 μL of MicroScinti-O (manufactured by PerkinElmer) was added to each well and the radioactivity was measured by TopCount (manufactured by PerkinElmer).
Specific binding is shown by the value obtained by subtracting non-specific binding from the total binding. The binding inhibitory activity of the test compound is shown by the ratio of the value obtained by subtracting the measured value associated with the addition of the test compound from the total binding, to the value of the specific binding.

SMILES | inhibition at 10 µM (test compound 10^−5 M) | hNK3 receptor binding inhibitory activity (inhibitory rate (%)) (test compound 10^−6 M) | hNK3 receptor binding inhibitory activity (inhibitory rate (%)) (test compound 10^−5 M) | inhibition at 1 µM (test compound 10^−6 M)
Cc1ccn(-c2ccc(C(=O)N[C@@H]3CCC(F)(F)C[C@@H]3C(=O)N3CCc4c(-c5ncc[nH]5)nc5ccccc5c43)cc2)n1 [Example 1, N-[(1R,2S)-4,4-difluoro-2-{[4-(1H-imidazol-2-yl)-2,3-dihydro-1H-pyrrolo[3,2-c]quinolin-1-yl]carbonyl}cyclohexyl]-4-(3-methyl-1H-pyrazol-1-yl)benzamide] | 28.4% | 9.0% | – | –
Br.Cc1ccn(-c2ccc(C(=O)N[C@@H]3CCC(F)(F)C[C@@H]3C(=O)N3CCc4c(-c5ncc[nH]5)nc5ccccc5c43)cc2)n1 [Example 2, N-[(1R,2S)-4,4-difluoro-2-{[4-(1H-imidazol-2-yl)-2,3-dihydro-1H-pyrrolo[3,2-c]quinolin-1-yl]carbonyl}cyclohexyl]-4-(3-methyl-1H-pyrazol-1-yl)benzamide hydrobromide] | – | 4.1% | 32.7% | –
Cc1ccn(-c2ccc(C(=O)N[C@@H]3CCC(F)(F)C[C@@H]3C(=O)N3CCc4c(-c5ncc[nH]5)nc5ccccc5c43)cc2)n1.Cl [Example 3, N-[(1R,2S)-4,4-difluoro-2-{(4-(1H-imidazol-2-yl)-2,3-dihydro-1H-pyrrolo[3,2-c]quinolin-1-yl]carbonyl}cyclohexyl]-4-(3-methyl-1H-pyrazol-1-yl)benzamide hydrochloride] | – | 9.4% | 30.4% | –
Cc1ccn(-c2ccc(C(=O)N[C@@H]3CCC(F)(F)C[C@@H]3C(=O)N3CCc4c(-c5nccn5COC(=O)C(C)(C)C)nc5ccccc5c43)cc2)n1 [Example 4, [2-(1-{[(1S,2R)-5,5-difluoro-2-({[4-(3-methyl-1H-pyrazol-1-yl)phenyl]carbonyl}amino)cyclohexyl]carbonyl)-2,3-dihydro-1H-pyrrolo[3,2-c]quinolin-4-yl)-1H-imidazol-1-yl]methyl 2,2-dimethylpropanoate] | -7.9% | – | – | -6.1%

The next lines start with the values.

inhibition at 10 µM (test compound 10^−5 M) | hNK3 receptor binding inhibitory activity (inhibitory rate (%)) (test compound 10^−6 M) | hNK3 receptor binding inhibitory activity (inhibitory rate (%)) (test compound 10^−5 M) | inhibition at 1 µM (test compound 10^−6 M) | SMILES
15.2% | – | – | -8.1% | Cc1ccn(-c2ccc(C(=O)N[C@@H]3CCC(F)(F)C[C@@H]3C(=O)N3CCc4c(-c5ncc[nH]5)nc5ccc(F)cc5c43)cc2)n1 [Example 5, N-[(1R,2S)-4,4-difluoro-2-{[8-fluoro-4-(1H-imidazol-2-yl)-2,3-dihydro-1H-pyrrolo[3,2-c]quinolin-1-yl]carbonyl}cyclohexyl]-4-(3-methyl-1H-pyrazol-1-yl)benzamide]
35.6% | – | – | 5.9% | Cc1ccn(-c2ccc(C(=O)N[C@@H]3CCC(F)(F)C[C@@H]3C(=O)N3CCc4c(-c5ccsc5)nc5ccccc5c43)cc2)n1 [Example 7, N-[(1R,2S)-4,4-difluoro-2-{(4-thiophen-3-yl-2,3-dihydro-1H-pyrrolo[3,2-c]quinolin-1-yl)carbonyl]cyclohexyl}-4-(3-methyl-1H-pyrazol-1-yl)benzamide]
53.1% | – | – | 27.7% | Cc1ccn(-c2ccc(C(=O)N[C@@H]3CCC(F)(F)C[C@@H]3C(=O)N3CCc4c(-c5ccccc5)nc5ccc(F)cc5c43)cc2)n1 [Example 9, N-{(1R,2S)-4,4-difluoro-2-[(8-fluoro-4-phenyl-2,3-dihydro-1H-pyrrolo[3,2-c]quinolin-1-yl)carbonyl]cyclohexyl}-4-(3-methyl-1H-pyrazol-1-yl)benzamide]
